# Where two headings read alike, the source gives them in different places.
# Tests used:
# Assay type in all cases: biochemical
# FAAH = target: T1, FAAH (Mus musculus, UniProt O08914); assay: Gel-based competitive ABPP in vitro, mouse brain membrane proteome; conditions: for FAAH in vitro enzyme activity, % @ 10 μM: mouse brain (mem) proteome
# T1 construct: from tissue; host or cells: mouse brain, membrane fraction
# T1 sequence (O08914 1-579): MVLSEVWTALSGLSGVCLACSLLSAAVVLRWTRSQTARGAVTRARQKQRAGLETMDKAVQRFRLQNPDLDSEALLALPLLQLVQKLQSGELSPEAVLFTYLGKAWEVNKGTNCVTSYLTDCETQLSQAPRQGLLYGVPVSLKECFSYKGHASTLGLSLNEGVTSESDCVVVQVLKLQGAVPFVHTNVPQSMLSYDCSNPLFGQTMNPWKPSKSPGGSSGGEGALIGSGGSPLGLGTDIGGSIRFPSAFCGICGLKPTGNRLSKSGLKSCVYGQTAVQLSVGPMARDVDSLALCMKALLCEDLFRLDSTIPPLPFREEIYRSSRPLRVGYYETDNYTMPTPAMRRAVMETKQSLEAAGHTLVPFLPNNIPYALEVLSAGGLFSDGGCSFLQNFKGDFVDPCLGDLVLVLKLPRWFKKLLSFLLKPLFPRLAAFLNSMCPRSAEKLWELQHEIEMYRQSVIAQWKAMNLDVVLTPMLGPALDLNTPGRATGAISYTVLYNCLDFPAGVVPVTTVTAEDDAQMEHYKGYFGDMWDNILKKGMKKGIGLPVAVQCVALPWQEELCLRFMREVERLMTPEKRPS
# [1] = system: mouse LYPLA1/2 (quantified together); assay: IC50 by gel-based competitive ABPP in vitro, mouse brain membrane proteome
# Procedure: Assay Overview: The purpose of this assay was to determine IC50 values of powder samples of test compounds for enzyme of interest activity, and anti-targets in a complex proteomic lysate using a gel-based competitive ABPP assay. In this assay, a complex proteome was incubated with test compound followed by reaction with FP-Rh and SDS-PAGE analysis as described above.
# Protocol Summary: Soluble HeLa cell proteome (50 μL reaction volume, 1 mg/mL in DPBS) or mouse brain membrane proteome (50 μL reaction volume, 1 mg/mL in DPBS) was treated with varying concentrations of test compound (1 μL of a 50× stock in DMSO) for 30 minutes at 37° C. FP-Rh (1 μL of 50× stock in DMSO) was added to a final concentration of 2 μM. The reaction was incubated for 30 minutes at 25° C., quenched with 16 μL 4×SDS-PAGE loading buffer (reducing), separated by SDS-PAGE and visualized by in-gel fluorescent scanning. The percentage activity remaining was determined by measuring the integrated optical density of the enzymes of interest, and anti-target bands relative to a DMSO-only (no compound) control. IC50 values were determined from dose-response curves from three replicates at each inhibitor concentration: 1, 10, 100, 1000, 10000 nM and 0.01, 0.1, 1, 10, 100, 1000, 10000, 50000, and 100000 nM.
# LYPLA1 = target: T2, LYPLA1 (Mus musculus, UniProt P97823); assay: Gel-based competitive ABPP in vitro, mouse brain membrane proteome
# T2 construct: a complex proteome endogenously expressing LYPLA1/2 was incubated with test compound; from tissue; host or cells: mouse brain, membrane fraction
# In short: (§1)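 Mouse brain membrane proteome (1 mg/mL in DPBS) was treated with compound (0.1-100 μM) for 30 min at 37 °C, then labeled with FP-Rh (2 μM final, 30 min, 25 °C). Bands were resolved by SDS-PAGE and scanned in-gel, with inhibition taken from band optical density versus DMSO. Targets counted as active or anti-targets at ≥50% inhibition.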
# LYPLA2 = target: T3, LYPLA2 (Mus musculus, UniProt Q9WTL7); assay: as above
# T3 construct: a complex proteome endogenously expressing LYPLA1/2 was incubated with test compound; from tissue; host or cells: mouse brain, membrane fraction
# In short: as §1
# [2] = 20 μM, mouse brain (mem) proteome
# [3] = mouse LYPLA1/2, in vitro, read-out: mLYPLA1/2 in vitro potency (IC50)
# T3 sequence (Q9WTL7 whole entry): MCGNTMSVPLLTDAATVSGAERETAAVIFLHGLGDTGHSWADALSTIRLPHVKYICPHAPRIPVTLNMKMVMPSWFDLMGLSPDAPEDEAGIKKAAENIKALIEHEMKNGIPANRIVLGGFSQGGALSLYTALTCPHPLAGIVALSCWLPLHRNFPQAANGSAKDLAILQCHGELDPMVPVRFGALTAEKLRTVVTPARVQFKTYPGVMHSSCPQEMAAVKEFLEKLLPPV
# T2 sequence (P97823 whole entry): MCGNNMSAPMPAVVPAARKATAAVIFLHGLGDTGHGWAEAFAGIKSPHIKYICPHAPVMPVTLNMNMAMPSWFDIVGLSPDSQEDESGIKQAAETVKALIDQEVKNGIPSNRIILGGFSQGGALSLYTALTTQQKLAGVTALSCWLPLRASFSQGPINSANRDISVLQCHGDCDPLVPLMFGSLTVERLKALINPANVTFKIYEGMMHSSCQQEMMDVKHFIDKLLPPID
Compound,"FAAH in vitro enzyme activity, % @ 10 μM (FAAH) [% @]","LYPLA1 in vitro enzyme activity, % @ 10 μM (LYPLA1; mouse brain (mem) proteome) [% @]","LYPLA2 in vitro enzyme activity, % @ 10 μM (LYPLA2; mouse brain (mem) proteome) [% @]",also measured
"O=C(ON1C(=O)C2CN(C(=O)N3CCOCC3)CCN2C1=O)N1CCC(CCc2ccc(Cl)cc2)CC1 (centres unmarked) [Compound 1, 7-(morpholine-4-carbonyl)-1,3-dioxohexahydroimidazo[1,5-a]pyrazin-2(3H)-yl 4-(4-chloro-phenethyl)piperidine-1-carboxylate]",,,,"selectivity for LYPLA1/2 over FAAH (FAAH; LYPLA versus FAAH): ~13 fold; IC50 (FAAH; anti-target, mouse brain membrane proteome): 3.15 µM; IC50 ([1]; LYPLA1/2 quantified together, mouse brain membrane proteome, read-out: mouse LYPLA1/2 collective IC50 in vitro): 0.154 µM; potency and selectivity for LYPLA1/2, concentration-dependent profiling ([1]; mouse brain membrane SHs, FIG. 7B): good potency and selectivity; inhibition at 1 µM (LYPLA1; 1 μM compound, 30 min, one replicate, read-out: LYPLA1 % INH 1 μM): 100%; inhibition at 10 µM (LYPLA1; 10 μM compound, 30 min, one replicate, read-out: LYPLA1 % INH 10 μM): 100%; inhibition at 100 µM (LYPLA1; 100 μM compound, 30 min, one replicate, read-out: LYPLA1 % INH 100 μM): 100%; inhibition at 1 µM (LYPLA2; 1 μM compound, 30 min, one replicate, read-out: LYPLA2 % INH 1 μM): 100%; inhibition at 10 µM (LYPLA2; 10 μM compound, 30 min, one replicate, read-out: LYPLA2 % INH 10 μM): 100%; inhibition at 100 µM (LYPLA2; 100 μM compound, 30 min, one replicate, read-out: LYPLA2 % INH 100 μM): 100%"
"O=C(ON1C(=O)C2CN(Cc3ccc(Oc4ccccc4)cc3)CCN2C1=O)N1CCC(c2ccccc2)CC1 (centres unmarked) [Compound 38, 1,3-dioxo-7-(4-phenoxybenzyl)hexahydroimidazo[1,5-a]pyrazin-2(3H)-yl 4-phenylpiperidine-1-carboxylate]",,,,"LYPLA1 in vitro enzyme activity, % @ 20 μM (LYPLA1; [2]): 0% @; LYPLA2 in vitro enzyme activity, % @ 20 μM (LYPLA2; [2]): 0% @"
"O=C(ON1C(=O)[C@@H]2CN(Cc3ccc(Br)cc3)CCN2C1=O)N1CCC(CCc2ccc(Cl)cc2)CC1 [Compound 40, (S)-7-(4-bromobenzyl)-1,3-dioxohexahydroimidazo[1,5-a]pyrazin-2(3H)-yl4-(4-chlorophenethyl)piperidine-1-carboxylate]",50,50,50,
"O=C(ON1C(=O)[C@@H]2CN(C(=O)N3CCOCC3)CCN2C1=O)N1CCN(CCc2ccc(Cl)cc2)CC1 [Compound 41, (S)-7-(morpholine-4-carbonyl)-1,3-dioxo-hexahydroimidazo[1,5-a]pyrazin-2(3H)-yl 4-(4-chlorophenethyl)piperazine-1-carboxylate]",100,100,100,
"COc1ccc(N2CCN(C(=O)ON3C(=O)[C@@H]4CN(CC5CCN(Cc6ccccc6)CC5)CCN4C3=O)CC2)cc1 [Compound 42, (S)-7-((1-benzylpiperidin-4-yl)methyl)-1,3-dioxo-hexahydroimidazo[1,5-a]pyrazin-2(3H)-yl 4-(4-methoxyphenyl)piperazine-1-carboxylate]",0,50,100,"IC50 [1, 3]: 29.3 µM"
"COc1ccc(N2CCN(C(=O)ON3C(=O)[C@H]4CN(CC5CCN(Cc6ccccc6)CC5)CCN4C3=O)CC2)cc1 [Compound 43, (R)-7-((1-benzylpiperidin-4-yl)methyl)-1,3-dioxo-hexahydroimidazo[1,5-a]pyrazin-2(3H)-yl 4-(4-methoxyphenyl)piperazine-1-carboxylate]",0,0,0,
"C#CCOc1ccc(N2CCN(C(=O)ON3C(=O)[C@@H]4CN(Cc5ccc(Oc6ccccc6)cc5)CCN4C3=O)CC2)cc1 [Compound 44, (S)-1,3-dioxo-7-(4-phenoxybenzyl)-hexahydroimidazo[1,5-a]pyrazin-2(3H)-yl 4-(4-(prop-2-ynyloxy)phenyl)piperazine-1-carboxylate]",0,0,0,
"C#CCOc1ccc(N2CCN(C(=O)ON3C(=O)[C@H]4CN(Cc5ccc(Oc6ccccc6)cc5)CCN4C3=O)CC2)cc1 [Compound 45, (R)-1,3-dioxo-7-(4-phenoxybenzyl)-hexahydroimidazo[1,5-a]pyrazin-2(3H)-yl 4-(4-(prop-2-ynyloxy)phenyl)piperazine-1-carboxylate]",0,0,0,
"C#CCOc1ccc(N2CCN(C(=O)ON3C(=O)[C@@H]4CN(CC5CCN(Cc6ccccc6)CC5)CCN4C3=O)CC2)cc1 [Compound 46, (S)-7-((1-benzylpiperidin-4-yl)methyl)-1,3-dioxo-hexahydroimidazo[1,5-a]pyrazin-2(3H)-yl 4-(4-(prop-2-ynyloxy)phenyl)piperazine-1-carboxylate]",0,50,50,
"C#CCOc1ccc(N2CCN(C(=O)ON3C(=O)[C@H]4CN(CC5CCN(Cc6ccccc6)CC5)CCN4C3=O)CC2)cc1 [Compound 47, (R)-7-((1-benzylpiperidin-4-yl)methyl)-1,3-dioxo-hexahydroimidazo[1,5-a]pyrazin-2(3H)-yl 4-(4-(prop-2-ynyloxy)phenyl)piperazine-1-carboxylate]",0,0,0,
"C#Cc1ccc(CCC2CCN(C(=O)ON3C(=O)[C@@H]4CN(C(=O)N5CCOCC5)CCN4C3=O)CC2)cc1 [Compound 48, (S)-7-(morpholine-4-carbonyl)-1,3-dioxo-hexahydroimidazo[1,5-a]pyrazin-2(3H)-yl 4-(4-ethynylphenethyl)piperidine-1-carboxylate]",75,,,"LYPLA1 in vitro enzyme activity, % @ 1 μM (LYPLA1; mouse brain (mem) proteome): 75% @; LYPLA2 in vitro enzyme activity, % @ 1 μM (LYPLA2; mouse brain (mem) proteome): 75% @"
"C#Cc1ccc(CCC2CCN(C(=O)ON3C(=O)[C@H]4CN(C(=O)N5CCOCC5)CCN4C3=O)CC2)cc1 [Compound 49, (R)-7-(morpholine-4-carbonyl)-1,3-dioxo-hexahydroimidazo[1,5-a]pyrazin-2(3H)-yl 4-(4-ethynylphenethyl)piperidine-1-carboxylate]",50,,,"LYPLA1 in vitro enzyme activity, % @ 1 μM (LYPLA1; mouse brain (mem) proteome): 75% @; LYPLA2 in vitro enzyme activity, % @ 1 μM (LYPLA2; mouse brain (mem) proteome): 75% @"
"O=C(ON1C(=O)[C@@H]2CN(C(=O)N3CCOCC3)CCN2C1=O)N1CCC(CCc2ccc(Cl)cc2)CC1 [Compound 50, (S)-7-(morpholine-4-carbonyl)-1,3-dioxohexahydroimidazo[1,5-a]pyrazin-2(3H)-yl 4-(4-chloro-phenethyl)piperidine-1-carboxylate]",0,,,"IC50 [1, 3]: 0.117 µM; LYPLA1 in vitro enzyme activity, % @ 1 μM (LYPLA1; mouse brain (mem) proteome): 100% @; LYPLA2 in vitro enzyme activity, % @ 1 μM (LYPLA2; mouse brain (mem) proteome): 100% @"
"COc1ccc(N2CCN(C(=O)ON3C(=O)C4CN(CC5CCN(Cc6ccccc6)CC5)CCN4C3=O)CC2)cc1 (centres unmarked) [Compound 52, 7-((1-benzylpiperidin-4-yl)methyl)-1,3-dioxo-hexahydroimidazo[1,5-a]pyrazin-2(3H)-yl 4-(4-methoxyphenyl)piperazine-1-carboxylate]",0,0,0,
"C#Cc1ccc(CCC2CCN(C(=O)ON3C(=O)C4CN(C(=O)N5CCOCC5)CCN4C3=O)CC2)cc1 (centres unmarked) [Compound 53, 7-(morpholine-4-carbonyl)-1,3-dioxo-hexahydroimidazo[1,5-a]pyrazin-2(3H)-yl 4-(4-ethynylphenethyl)piperidine-1-carboxylate]",50,,,"LYPLA1 in vitro enzyme activity, % @ 1 μM (LYPLA1; mouse brain (mem) proteome): 75% @; LYPLA2 in vitro enzyme activity, % @ 1 μM (LYPLA2; mouse brain (mem) proteome): 75% @"

# Source: US9981972B2, “N-hydroxy bicyclic hydantoin carbamates as tools for identification of serine hydrolase targets” (ABIDE THERAPEUTICS, INC., priority 2014, dated 2018)
